Laboratory results reported in ChEMBL document CHEMBL1131315, “Synthesis and anticonvulsant activity of 2(3H)-benzoxazolone and 2(3H)-benzothiazolone derivatives” (J Med Chem, 1998).
Where “and” joins values, the source holds several entries; their conditions need not be identical. Equal entries are not always repeated. Calls of active or inactive are those of the source. The rule behind the calls is not given here.

Tests used:
Mus musculus [1] = assay: The compound was tested for anticonvulsant activity in Maximal electroshock seizure test for 30 min in mice(ip); active at 300 mg/kg; type: functional, organism-based; parameters: dose 300 mg/kg
Mus musculus [2] = assay: The compound was tested for anticonvulsant activity in Maximal electroshock seizure test (MES) for 4 hr in mice(ip); no activity or toxicity at 300 mg/kg; type: functional, organism-based; parameters: dose 300 mg/kg
Mus musculus [3] = assay: Anticonvulsant activity in subcutaneous pentylenetetrazole seizure test for 30 min in mice; No activity/toxicity at 300 mg/kg.; type: functional, organism-based; parameters: dose 300 mg/kg
Mus musculus [4] = assay: The anticonvulsant activity in subcutaneous pentylenetetrazole seizure test (sc Met) for 4 hr in mice; no activity or no toxicity at 300 mg/kg; type: functional, organism-based; parameters: dose 300 mg/kg
[5] = The compound was tested for neurologic toxicity (rotarod) test for 30 min in mice; no activity or no toxicity at 300 mg/kg; type: organism-based; parameters: dose 300 mg/kg; settings: mouse, in vivo, 0.5 h
[6] = The compound was tested for neurologic toxicity (rotarod) test for 4 hours in mice; no activity or no toxicity at 300 mg/kg; type: organism-based; parameters: dose 300 mg/kg; settings: mouse, in vivo
Mus musculus [7] = assay: Time of peak effect in mice following i.p. administration.; type: functional
Mus musculus [8] = assay: Anticonvulsant activity in Maximal electroshock seizure test at 100 mg/kg i.p. in mice.; type: functional, organism-based; parameters: dose 100 mg/kg
Mus musculus [9] = assay: The compound was tested for anticonvulsant activity in Maximal electroshock seizure test (MES) for 4 hr in mice(ip); active at 100 mg/kg; type: functional, organism-based; parameters: dose 100 mg/kg
Mus musculus [10] = assay: The compound was tested to inhibit 50% of induced maximal electroshock seizure in mice on ip administration.; type: functional
Mus musculus [11] = assay: Inhibition of s.c. pentylenetetrazole induced seizure in mice following i.p. administration.; type: functional
Mus musculus [12] = species: Mus musculus; assay: Protective index value is the ratio between TD50 and ED50 values.; type: functional
Mus musculus [13] = assay: The compound was tested for anticonvulsant activity in subcutaneous pentylenetetrazole seizure test (sc Met) for 30 min in mice; active at 100 mg/kg; type: functional, organism-based; parameters: dose 100 mg/kg
Mus musculus [14] = assay: The compound was tested for anticonvulsant activity in subcutaneous pentylenetetrazole seizure test (sc Met) for 4 hr in mice; active at 300 mg/kg; type: functional, organism-based; parameters: dose 300 mg/kg
Rattus norvegicus [15] = assay: The compound was tested for the effective oral dose to inhibit 50% of the anticonvulsant in rats; type: functional
Rattus norvegicus [16] = assay: The compound was tested for the toxic dose on oral administration.; type: functional
Rattus norvegicus [17] = species: Rattus norvegicus; assay: Protective index value is the ratio between ED50 and TD50; type: functional
[18] = (§1) The compound was tested for neurologic toxicity (rotarod) test for 30 min in mice; active at 100 mg/kg; type: organism-based; parameters: dose 100 mg/kg; settings: mouse, in vivo, 0.5 h
[19] = (§2) The compound was determined for the dose (mg/kg) by rotarod test at the time of peak neurotoxic effect in mice on ip administration.; type: ADME, organism-based; settings: mouse, in vivo
[20] = The compound was tested for time of peak effect (TPE) in hours for its toxicity in mice on ip administration.; type: organism-based; settings: mouse, in vivo
[21] = (§3) The compound was tested for neurologic toxicity (rotarod) test for 4 hours in mice; active at 300 mg/kg; type: organism-based; parameters: dose 300 mg/kg; settings: mouse, in vivo
Mus musculus [22] = assay: as §2; type: functional
Mus musculus [23] = assay: The compound was tested for anticonvulsant activity in subcutaneous pentylenetetrazole seizure test (sc Met) for 30 min in mice; active at 300 mg/kg; type: functional, organism-based; parameters: dose 300 mg/kg
Mus musculus [24] = assay: The compound was tested for anticonvulsant activity in Maximal electroshock seizure test (MES) for 4 hr in mice(ip); active at 300 mg/kg; type: functional, organism-based; parameters: dose 300 mg/kg
Mus musculus [25] = assay: as §3; type: functional, organism-based; parameters: dose 300 mg/kg
Mus musculus [26] = assay: as §1; type: functional, organism-based; parameters: dose 100 mg/kg
[27] = The compound was tested for neurologic toxicity (rotarod) test for 30 min in mice; active at 30 mg/kg; type: organism-based; parameters: dose 30 mg/kg; settings: mouse, in vivo, 0.5 h
[28] = The compound was tested for neurologic toxicity (rotarod) test for 4 hours in mice; active at 30 mg/kg; type: organism-based; parameters: dose 30 mg/kg; settings: mouse, in vivo
Mus musculus [29] = assay: The compound was tested to inhibit 50% of induced maximal electroshock seizure in mice on ip administration; type: functional
Mus musculus [30] = assay: The compound was tested to inhibit 50% of induced subcutaneous pentylenetetrazole seizure in mice on ip administration; type: functional
Mus musculus [31] = assay: The compound was determined for the dose (mg/kg) by rotarod test at the time of peak neurotoxic effect in mice on ip administration; type: functional

Structure (SMILES)	MES (Mus musculus [2])	scMet (Mus musculus [3])	scMet (Mus musculus [4])	Rotarod toxicity [6]	Activity (Mus musculus [7])	MES (Mus musculus [8])	ED50 (Mus musculus [10])	ED50 (Mus musculus [11])	scMet (Mus musculus [13])	scMet (Mus musculus [14])	Rotarod toxicity [18]	Toxicity [20]	further results
CCC(=O)c1ccc2nc(O)oc2c1	active at 300 mg/kg	No activity or no toxicity at 300 mg/kg	No activity or no toxicity at 300 mg/kg	No activity or no toxicity at 300 mg/kg									MES (Mus musculus [1]): active at 300 mg/kg; Rotarod toxicity [5]: No activity or no toxicity at 300 mg/kg
Oc1nc2ccc(Cc3ccc(F)cc3)cc2o1					1 h	active at 100 mg/kg	125 mg/kg	218 mg/kg	active at 100 mg/kg	active at 100 mg/kg	active at 100 mg/kg	1 h	MES (Mus musculus [9]): active at 100 mg/kg; PI (Mus musculus [12]): 2.8 and 1.6; ED50 (Rattus norvegicus [15]): 11.9 mg/kg; TD50 (Rattus norvegicus [16]): > 220 mg/kg; PI (Rattus norvegicus [17]): 18.5; TD50 [19]: 356 mg/kg; Rotarod toxicity [21]: active at 100 mg/kg
CCC(=O)c1ccc2c(c1)sc(=O)n2CCN1CCOCC1	No activity or toxicity at 300 mg/kg		active at 300 mg/kg	active at 100 mg/kg	0.25 h	No activity or toxicity at 300 mg/kg	62.1 mg/kg	> 300 mg/kg			active at 100 mg/kg	0.25 h	TD50 (Mus musculus [22]): 239 mg/kg; scMet (Mus musculus [23]): active at 300 mg/kg
O=c1[nH]c2ccccc2s1						active at 300 mg/kg			active at 100 mg/kg	active at 100 mg/kg			MES (Mus musculus [24]): active at 300 mg/kg; Rotarod toxicity (Mus musculus [25]): active at 100 mg/kg; Rotarod toxicity (Mus musculus [26]): active at 100 mg/kg
CCC(=O)c1ccc2c(c1)oc(=O)n2CCCN1CCCCC1	No activity or toxicity at 300 mg/kg	No activity or no toxicity at 300 mg/kg	No activity or no toxicity at 300 mg/kg			No activity or toxicity at 300 mg/kg							Rotarod toxicity [27]: active at 30 mg/kg; Rotarod toxicity [28]: active at 30 mg/kg
CCC1(c2ccccc2)C(=O)NC(=O)NC1=O [PHENOBARBITAL]													ED50 (Mus musculus [29]): 21.8 mg/kg; ED50 (Mus musculus [30]): 13.2 mg/kg; TD50 (Mus musculus [31]): 69 mg/kg
